Test results reported in ChEMBL document CHEMBL1147101, “Development and persistence of antimicrobial resistance in Pseudomonas aeruginosa: a longitudinal observation in mechanically ventilated patients” (Antimicrob Agents Chemother, 2007).
Calls of active or inactive are those of the source.

Key:
Format in all cases: functional, organism-based
Settings in all cases: Trachea
Pseudomonas aeruginosa [1] = assay: Antimicrobial activity against Pseudomonas aeruginosa 65.36-3 tracheal isolates from mechanically ventilated tuberculosis patient
Pseudomonas aeruginosa [2] = assay: Antimicrobial activity against Pseudomonas aeruginosa 2F6 tracheal isolates from mechanically ventilated tuberculosis patient
Pseudomonas aeruginosa [3] = assay: Antimicrobial activity against Pseudomonas aeruginosa 2A9 tracheal isolates from mechanically ventilated tuberculosis patient
Pseudomonas aeruginosa [4] = assay: Antimicrobial activity against Pseudomonas aeruginosa 9B5 tracheal isolates from mechanically ventilated chronic respiratory insufficiency patient
Pseudomonas aeruginosa [5] = assay: Antimicrobial activity against Pseudomonas aeruginosa 65.33-4 tracheal isolates from mechanically ventilated tuberculosis patient
Pseudomonas aeruginosa [6] = assay: Antimicrobial activity against Pseudomonas aeruginosa 13D11 tracheal isolates from mechanically ventilated chronic respiratory insufficiency patient
Pseudomonas aeruginosa [7] = assay: Antimicrobial activity against Pseudomonas aeruginosa 3D1 tracheal isolates from mechanically ventilated chronic respiratory insufficiency patient
Pseudomonas aeruginosa [8] = assay: Antimicrobial activity against Pseudomonas aeruginosa 5H6 tracheal isolates from mechanically ventilated chronic respiratory insufficiency patient
Pseudomonas aeruginosa [9] = assay: Antimicrobial activity against Pseudomonas aeruginosa 10B1 tracheal isolates from mechanically ventilated chronic respiratory insufficiency patient
Pseudomonas aeruginosa [10] = assay: Antimicrobial activity against Pseudomonas aeruginosa 22D9 tracheal isolates from mechanically ventilated chronic respiratory insufficiency patient
Pseudomonas aeruginosa [11] = assay: Antimicrobial activity against Pseudomonas aeruginosa 12A7 tracheal isolates from mechanically ventilated chronic respiratory insufficiency patient
Pseudomonas aeruginosa [12] = assay: Antimicrobial activity against Pseudomonas aeruginosa 65.36-1 tracheal isolates from mechanically ventilated tuberculosis patient
Pseudomonas aeruginosa [13] = assay: Antimicrobial activity against Pseudomonas aeruginosa 10A9 tracheal isolates from mechanically ventilated chronic respiratory insufficiency patient
Pseudomonas aeruginosa [14] = assay: Antimicrobial activity against Pseudomonas aeruginosa 9B2 tracheal isolates from mechanically ventilated chronic respiratory insufficiency patient
Pseudomonas aeruginosa [15] = assay: Antimicrobial activity against Pseudomonas aeruginosa 29G8 tracheal isolates from mechanically ventilated chronic respiratory insufficiency patient
Pseudomonas aeruginosa [16] = assay: Antimicrobial activity against Pseudomonas aeruginosa 22C5 tracheal isolates from mechanically ventilated chronic respiratory insufficiency patient
Pseudomonas aeruginosa [17] = assay: Antimicrobial activity against Pseudomonas aeruginosa 5G3 tracheal isolates from mechanically ventilated chronic respiratory insufficiency patient
Pseudomonas aeruginosa [18] = assay: Antimicrobial activity against Pseudomonas aeruginosa 65.38-1 tracheal isolates from mechanically ventilated tuberculosis patient
Pseudomonas aeruginosa [19] = assay: Antimicrobial activity against Pseudomonas aeruginosa 8A2 tracheal isolates from mechanically ventilated chronic respiratory insufficiency patient
Pseudomonas aeruginosa [20] = assay: Antimicrobial activity against Pseudomonas aeruginosa 8C4 tracheal isolates from mechanically ventilated chronic respiratory insufficiency patient
Pseudomonas aeruginosa [21] = assay: Antimicrobial activity against Pseudomonas aeruginosa 22E3 tracheal isolates from mechanically ventilated chronic respiratory insufficiency patient
Pseudomonas aeruginosa [22] = assay: Antimicrobial activity against Pseudomonas aeruginosa 13E1 tracheal isolates from mechanically ventilated chronic respiratory insufficiency patient
Pseudomonas aeruginosa [23] = assay: Antimicrobial activity against Pseudomonas aeruginosa 15H5 tracheal isolates from mechanically ventilated chronic respiratory insufficiency patient
Pseudomonas aeruginosa [24] = assay: Antimicrobial activity against Pseudomonas aeruginosa 19B3 tracheal isolates from mechanically ventilated chronic respiratory insufficiency patient
Pseudomonas aeruginosa [25] = assay: Antimicrobial activity against Pseudomonas aeruginosa 65.36-4 tracheal isolates from mechanically ventilated tuberculosis patient
Pseudomonas aeruginosa [26] = assay: Antimicrobial activity against Pseudomonas aeruginosa 8B11 tracheal isolates from mechanically ventilated chronic respiratory insufficiency patient
Pseudomonas aeruginosa [27] = assay: Antimicrobial activity against Pseudomonas aeruginosa 8A12 tracheal isolates from mechanically ventilated chronic respiratory insufficiency patient
Pseudomonas aeruginosa [28] = assay: Antimicrobial activity against Pseudomonas aeruginosa 2A5 tracheal isolates from mechanically ventilated chronic respiratory insufficiency patient
Pseudomonas aeruginosa [29] = assay: Antimicrobial activity against Pseudomonas aeruginosa 19D9 tracheal isolates from mechanically ventilated chronic respiratory insufficiency patient
Pseudomonas aeruginosa [30] = assay: Antimicrobial activity against Pseudomonas aeruginosa 2A7 tracheal isolates from mechanically ventilated tuberculosis patient
Pseudomonas aeruginosa [31] = assay: Antimicrobial activity against Pseudomonas aeruginosa 24G1 tracheal isolates from mechanically ventilated chronic respiratory insufficiency patient
Pseudomonas aeruginosa [32] = assay: Antimicrobial activity against Pseudomonas aeruginosa 10A6 tracheal isolates from mechanically ventilated chronic respiratory insufficiency patient
Pseudomonas aeruginosa [33] = assay: Antimicrobial activity against Pseudomonas aeruginosa 29G7 tracheal isolates from mechanically ventilated chronic respiratory insufficiency patient
Pseudomonas aeruginosa [34] = assay: Antimicrobial activity against Pseudomonas aeruginosa 1B9 tracheal isolates from mechanically ventilated tuberculosis patient
Pseudomonas aeruginosa [35] = assay: Antimicrobial activity against Pseudomonas aeruginosa 1A9 tracheal isolates from mechanically ventilated tuberculosis patient
Pseudomonas aeruginosa [36] = assay: Antimicrobial activity against Pseudomonas aeruginosa 12B2 tracheal isolates from mechanically ventilated chronic respiratory insufficiency patient
Pseudomonas aeruginosa [37] = assay: Antimicrobial activity against Pseudomonas aeruginosa 3E2 tracheal isolates from mechanically ventilated chronic respiratory insufficiency patient
Pseudomonas aeruginosa [38] = assay: Antimicrobial activity against Pseudomonas aeruginosa 29F6 tracheal isolates from mechanically ventilated chronic respiratory insufficiency patient
Pseudomonas aeruginosa [39] = assay: Antimicrobial activity against Pseudomonas aeruginosa 65.33-2 tracheal isolates from mechanically ventilated tuberculosis patient
Pseudomonas aeruginosa [40] = assay: Antimicrobial activity against Pseudomonas aeruginosa 19C7 tracheal isolates from mechanically ventilated chronic respiratory insufficiency patient
Pseudomonas aeruginosa [41] = assay: Antimicrobial activity against Pseudomonas aeruginosa 65.68-2 tracheal isolates from mechanically ventilated tuberculosis patient
Pseudomonas aeruginosa [42] = assay: Antimicrobial activity against Pseudomonas aeruginosa 19E2 tracheal isolates from mechanically ventilated chronic respiratory insufficiency patient
Pseudomonas aeruginosa [43] = assay: Antimicrobial activity against Pseudomonas aeruginosa 65.68-4 tracheal isolates from mechanically ventilated tuberculosis patient
Pseudomonas aeruginosa [44] = assay: Antimicrobial activity against Pseudomonas aeruginosa 19B6 tracheal isolates from mechanically ventilated chronic respiratory insufficiency patient
Pseudomonas aeruginosa [45] = assay: Antimicrobial activity against Pseudomonas aeruginosa 9A3 tracheal isolates from mechanically ventilated chronic respiratory insufficiency patient
Pseudomonas aeruginosa [46] = assay: Antimicrobial activity against Pseudomonas aeruginosa 29G6 tracheal isolates from mechanically ventilated chronic respiratory insufficiency patient
Pseudomonas aeruginosa [47] = assay: Antimicrobial activity against Pseudomonas aeruginosa 2A5 tracheal isolates from mechanically ventilated tuberculosis patient
Pseudomonas aeruginosa [48] = assay: Antimicrobial activity against Pseudomonas aeruginosa 22E1 tracheal isolates from mechanically ventilated chronic respiratory insufficiency patient
Pseudomonas aeruginosa [49] = assay: Antimicrobial activity against Pseudomonas aeruginosa 19E9 tracheal isolates from mechanically ventilated chronic respiratory insufficiency patient
Pseudomonas aeruginosa [50] = assay: Antimicrobial activity against Pseudomonas aeruginosa 9A10 tracheal isolates from mechanically ventilated chronic respiratory insufficiency patient
Pseudomonas aeruginosa [51] = assay: Antimicrobial activity against Pseudomonas aeruginosa 2A3 tracheal isolates from mechanically ventilated tuberculosis patient
Pseudomonas aeruginosa [52] = assay: Antimicrobial activity against Pseudomonas aeruginosa 2C2 tracheal isolates from mechanically ventilated tuberculosis patient
Pseudomonas aeruginosa [53] = assay: Antimicrobial activity against Pseudomonas aeruginosa 24E5 tracheal isolates from mechanically ventilated chronic respiratory insufficiency patient
Pseudomonas aeruginosa [54] = assay: Antimicrobial activity against Pseudomonas aeruginosa 65.33-1 tracheal isolates from mechanically ventilated tuberculosis patient
Pseudomonas aeruginosa [55] = assay: Antimicrobial activity against Pseudomonas aeruginosa 22D2 tracheal isolates from mechanically ventilated chronic respiratory insufficiency patient
Pseudomonas aeruginosa [56] = assay: Antimicrobial activity against Pseudomonas aeruginosa 22D6 tracheal isolates from mechanically ventilated chronic respiratory insufficiency patient
Pseudomonas aeruginosa [57] = assay: Antimicrobial activity against Pseudomonas aeruginosa P21.21 tracheal isolates from mechanically ventilated tuberculosis patient
Pseudomonas aeruginosa [58] = assay: Antimicrobial activity against Pseudomonas aeruginosa 65.68-1 tracheal isolates from mechanically ventilated tuberculosis patient
Pseudomonas aeruginosa [59] = assay: Antimicrobial activity against Pseudomonas aeruginosa P21.23 tracheal isolates from mechanically ventilated tuberculosis patient

Measured: Activity

GENTAMICIN
inactive: Pseudomonas aeruginosa [1] | Pseudomonas aeruginosa [2] | Pseudomonas aeruginosa [3] | Pseudomonas aeruginosa [12] | Pseudomonas aeruginosa [18] | Pseudomonas aeruginosa [25] | Pseudomonas aeruginosa [30] | Pseudomonas aeruginosa [34] | Pseudomonas aeruginosa [35] | Pseudomonas aeruginosa [41]
not listed: Pseudomonas aeruginosa [51] | Pseudomonas aeruginosa [52] | Pseudomonas aeruginosa [53] | Pseudomonas aeruginosa [54] | Pseudomonas aeruginosa [55] | Pseudomonas aeruginosa [56] | Pseudomonas aeruginosa [57] | Pseudomonas aeruginosa [58] | Pseudomonas aeruginosa [59]
active: all other assays above

O=C(O)c1cn(C2CC2)c2cc(N3CCNCC3)c(F)cc2c1=O
inactive: Pseudomonas aeruginosa [29]
not listed: Pseudomonas aeruginosa [31]
active: all other assays above

C[C@@H](O)[C@H]1C(=O)N2C(C(=O)O)=C(SCCNC=N)C[C@H]12
inactive: Pseudomonas aeruginosa [1] | Pseudomonas aeruginosa [2] | Pseudomonas aeruginosa [3] | Pseudomonas aeruginosa [51] | Pseudomonas aeruginosa [5] | Pseudomonas aeruginosa [12] | Pseudomonas aeruginosa [52] | Pseudomonas aeruginosa [18] | Pseudomonas aeruginosa [54] | Pseudomonas aeruginosa [25] | Pseudomonas aeruginosa [58] | Pseudomonas aeruginosa [30] | Pseudomonas aeruginosa [34] | Pseudomonas aeruginosa [35] | Pseudomonas aeruginosa [39] | Pseudomonas aeruginosa [41] | Pseudomonas aeruginosa [43]
not listed: Pseudomonas aeruginosa [15]
active: all other assays above
